# Source: patent US20230414615A1, “PYRIMIDINONE COMPOUNDS FOR TREATING ACUTE INFLAMMATION” (TES Pharma S.r.l., priority 2022, published 2023)
# Columns and labels:
# [1] = system: HK2 primary tubule cells; assay: Gene expression in HK2 (HK-2) primary tubule cells, basal or after Cisplatin insult; assay type: cell-based
# [2] = system: primary hepatocytes; assay: SIRT1 activation in primary hepatocytes; assay type: cell-based; conditions: 500 nM; 24 hrs after treatment
# [3] = system: primary hepatocytes; assay: Gene expression / mRNA levels in primary hepatocytes; assay type: cell-based, mouse; conditions: mouse primary hepatocytes after 24 hr treatment
# [4] = system: human primary bone marrow mononuclear cells (BMMCs); assay: LPS-induced cytokine secretion in human primary bone marrow mononuclear cells (BMMCs); assay type: cell-based
# [5] = system: co-culture of primary hepatocytes and stellate cells; assay: Cytokine secretion in co-culture of primary hepatocytes and stellate cells following LPS-induced inflammation; assay type: cell-based; conditions: LPS 50 ng/mL
# [6] = system: co-culture of primary hepatocytes and stellate cells; assay: Gene expression in co-culture of primary hepatocytes and stellate cells after free fatty acid mix; assay type: cell-based; conditions: 5 μM; after 6 hr exposure to palmitate (0.33 mM) and oleate (0.66 mM)
# [7] = system: CLP-induced sepsis model in mice; assay: CLP-induced sepsis model in mice (ex-vivo kidney gene expression, survival); parameters: species or system mouse; conditions: IP 30 mg/kg/dose
# Experimental: C57BL/6 mice (12-15 weeks old) (obtained from Charles River Laboratories) were anesthetized by intraperitoneal (i.p.) injection of a 1:1 solution of ketamine (75 mg/kg) and xylazine (15 mg/kg) (or pentobarbital (70 mg/kg)). The lower abdomen of the mouse was shaved and the area disinfected with a 70% alcohol swab. Under aseptic conditions, a 1 to 2 cm midline laparotomy was performed and the cecum exposed. The cecum was tightly ligated at the level of the second cecal artery with a 2.0 silk suture, perforated twice with a 22-gauge needle, and after expressing to allow for fecal matter to extrude, returned into the abdomen. The abdominal wall is then closed by planes using a running silk 4-0. Control animals underwent the same laparotomy and externalization of the cecum, but no ligation or perforation was performed. Animals were resuscitated with 1.0 mL of 0.9% normal saline, immediately after surgery via subcutaneous injection and recovered on thermal blankets under monitoring. Animals were then treated with 0.5 ml LRS (Q12 hours SQ for 3 days), ampicillin sulbactam (250 mg/kg Q12 hours IP for 3 days) and analgesic treatment (buprenorphine 0.05 mg/kg for 3 days).
# ACMSD inhibitors (e.g. compounds of present disclosure, compound of Formula I, Ia, Ib, and II) were administered at two different timepoints: (a) an early phase timepoint i.e. at the time of CLP and (b) at 24 hours after CLP. […] Blood samples and target organ tissue (liver and kidney) were collected at the time of sacrificing for histology and biomarker measurements.
# (§1) MATERIALS AND METHODS: Treatment with Compound I-18 in presence of LPS for 24 h has been performed to evaluate anti inflammatory properties and M1 to M2 transition. Renal tubular cells were stimulated with Compound I-18 and TGFβ for 16 hrs to evaluate the expression of genes involved in fibrosis. […] Survival percentage and liver gene modulation has been monitored in Sham groups, LPS and LPS+Compound 1-18 groups (n=8). […] Survival percentage and expression of genes involved in renal inflammation has been monitored.
# [8] = mRNA levels of mitochondrial and oxidative stress genes (cell type not stated); assay type: cell-based; conditions: 100 μM
# [9] = system: murine Kupffer cells; assay: M1/M2 polarisation of murine Kupffer cells treated with LPS; assay type: cell-based, mouse
# Experimental: MATERIALS AND METHODS: Treatment with Compound I-18 in presence of LPS for 24 h has been performed to evaluate anti inflammatory properties and M1 to M2 transition. Renal tubular cells were stimulated with Compound I-18 and TGFβ for 16 hrs to evaluate the expression of genes involved in fibrosis. Compound 1-18 (50 mg/kg) was dosed daily in mice treated with LPS 15 mg/kg. Survival percentage and liver gene modulation has been monitored in Sham groups, LPS and LPS+Compound 1-18 groups (n=8). 12-15 week old mice underwent CLP (50% ligation, thru-and-thru puncture with 21G needle) to evaluate CLP-induced sepsis. Compound I-18 was dosed at the concentration of 50 mg/kg for 7 days from CLP. Survival percentage and expression of genes involved in renal inflammation has been monitored.
# [10] = system: C57BL/6 mice; assay: LPS-induced systemic inflammation in mice, survival; assay type: in vivo, mouse; conditions: 50 mg/kg dosed daily, LPS 15 mg/kg
# Experimental: Male C57/6 mice (12-15 weeks old) (obtained from Charles River Laboratories) were housed under a 12 h/12 h light/dark cycle with free access to water and standard food. The mice were divided into four groups: control, control+ACMSD inhibitor, LPS, and LPS+the ACMSD inhibitor. LPS (Sigma; 20 mg/kg/d and 1 mg/ml in 0.9% normal saline) was intraperitoneally injected, and the same volume of 0.9% normal saline alone was used as controls. A dose of 15 mg/kg IP injection of the ACMSD inhibitor (e.g. compounds of present disclosure, compound of Formula I, Ia, Ib, and II) was used which was intraperitoneally injected immediately after LPS injection. An equal volume of the solvent was injected in the control and LPS alone groups. The mice were sacrificed at 24 h after various treatments and the liver and kidneys were collected for subsequent analysis.
# as §1
# [11] = 100 μM, HK-2 cells following cisplatin-insult
# [12] = murine Kupffer cells treated with LPS
smiles,measurement,setting,value
N#Cc1c(-c2cccs2)nc(SCc2cccc(CC(=O)O)c2)[nH]c1=O [Compound I-18],reduction of SIRT expression induced by a Cisplatin insult,"[1]; 50 μM, HK2 primary tubule cells",reverses
same,expression of OPA-1,[1]; [11],increases
same,expression of SOD2,[1]; [11],increases
same,expression of SIRT-3,[1]; HK2 primary tubule cells,increases
same,"mRNA levels of mitochondrial genes Sod1, Ndufa2, Cox2 and CytC",[1]; HK-2 cells after 24 hr treatment,increase
same,SIRT1 activation,[2],activate
same,"mRNA levels of mitochondrial genes TFAM, Ndufa, Uqcrc1, CytC, Atp5g1 and CS",[3],increases
same,secretion of LPS-induced IL-6,"[4]; 5 μM, human BMMCs",reduces
same,secretion of TNFα,"[4]; BMMC cells, LPS 50 ng/mL",reduces
same,secretion of IL-1β,[5]; 1 μM,reduces
same,secretion of TNFα,[5],reduces
same,expression of TNFα,[6],reduced
same,expression of pro-fibrotic chemokine CTGF,[6],reduces
same,expression of pro-fibrotic cytokine TGF-β,[6],reduces
same,"expression of the pro-fibrotic genes BAX, ACTA2, Col1A1, fibronectin, THBS-1 and TIMP2",[6],reduces
same,expression of IL-1β in ex-vivo kidney tissue samples,[7],reduced
same,expression of MCP1 in ex-vivo kidney tissue samples,[7],reduced
same,expression of TNFα in ex-vivo kidney tissue samples,[7],reduced
same,"mRNA levels of mitochondrial and oxidative stress genes CS, Ndufa2, Cox2, Atp5g1, Sod1 and Sod2",[8],increases
same,polarisation of resident liver macrophages (Kupffer cells) towards an M2 phenotype (M1-to-M2 transition),"[9]; in vitro, M1 induced by LPS",promoting their conversion
same,"M1 phenotype gene markers iNOS, IL-6 and TNFα",[9]; [12],decrease
same,"M2 phenotype gene markers Arginase-1, Mannose Receptor (Mrc-2) and IL-10",[9]; [12],increase
same,anti-inflammatory M2 Kupffer macrophages / M2 macrophage phenotype,[9]; [12],promotes
same,pro-inflammatory M1 Kupffer macrophages,"[9]; murine Kupffer cells treated with LPS, dose-response manner",blocks
same,M2 macrophage phenotype,[9]; two different stimuli (LPS and IL-4),can promote
same,survival in LPS-induced systemic inflammation,[10],promotes survival
